Assay results as given in the NIST ThermoML archive (doi:10.1021/je300938w).

Experiments:
[1] = refractive index (Na D-line) (dimensionless); wn = mass fraction of the nth substance listed; conditions: 101 kPa, Liquid, Standard Abbe refractometry
[2] = wn = mass fraction of the nth substance listed; conditions: 101 kPa, Liquid; for viscosity: Concentric cylinders viscometry; for mass density: Vibrating tube method

CC(O)CNCC(C)O (stereo not given) [N-(2-hydroxypropyl)-2-hydroxy-1-propanamine] + O
Conditions	mass density, [2] [kg/m3]	refractive index, [1]	viscosity, [2] [mPa·s]
298.15 K, w1 = 0.05	1000.6	1.34052	1.117
298.15 K, w1 = 0.1	1003.53	1.34766	1.394
298.15 K, w1 = 0.15	1006.99	1.35486	1.814
298.15 K, w1 = 0.2	1010.4	1.3621	2.288
298.15 K, w1 = 0.25	1014.1	1.36925	3.026
303.15 K, w1 = 0.05	999.133	1.33988	0.9968
303.15 K, w1 = 0.1	1001.97	1.34693	1.228
303.15 K, w1 = 0.15	1005.27	1.35421	1.569
303.15 K, w1 = 0.2	1008.5	1.3613	1.952
303.15 K, w1 = 0.25	1011.98	1.36822	2.539
308.15 K, w1 = 0.05	–	1.33919	0.8984
308.15 K, w1 = 0.1	–	1.34623	1.093
308.15 K, w1 = 0.15	–	1.35332	1.38
308.15 K, w1 = 0.2	–	1.36036	1.695
308.15 K, w1 = 0.25	–	1.36736	2.167
313.15 K, w1 = 0.05	–	1.33844	–
313.15 K, w1 = 0.1	–	1.34533	–
313.15 K, w1 = 0.15	–	1.35237	–
313.15 K, w1 = 0.2	–	1.35947	–
313.15 K, w1 = 0.25	–	1.36641	–
318.15 K, w1 = 0.05	–	1.33755	–
318.15 K, w1 = 0.1	–	1.3445	–
318.15 K, w1 = 0.15	–	1.35149	–
318.15 K, w1 = 0.2	–	1.35838	–
318.15 K, w1 = 0.25	–	1.36537	–
323.15 K, w1 = 0.05	–	1.33675	–
323.15 K, w1 = 0.1	–	1.34355	–
323.15 K, w1 = 0.15	–	1.35044	–
323.15 K, w1 = 0.2	–	1.35739	–
323.15 K, w1 = 0.25	–	1.36423	–
328.15 K, w1 = 0.05	–	1.33566	–
328.15 K, w1 = 0.1	–	1.34256	–
328.15 K, w1 = 0.15	–	1.3494	–
328.15 K, w1 = 0.2	–	1.35615	–
328.15 K, w1 = 0.25	–	1.36294	–
333.15 K, w1 = 0.05	–	1.33467	–
333.15 K, w1 = 0.1	–	1.34147	–
333.15 K, w1 = 0.15	–	1.34831	–
333.15 K, w1 = 0.2	–	1.35501	–
333.15 K, w1 = 0.25	–	1.36175	–
338.15 K, w1 = 0.05	–	1.33363	–
338.15 K, w1 = 0.1	–	1.34037	–
338.15 K, w1 = 0.15	–	1.34702	–
338.15 K, w1 = 0.2	–	1.35377	–
338.15 K, w1 = 0.25	–	1.36051	–
343.15 K, w1 = 0.05	–	1.33224	–
343.15 K, w1 = 0.1	–	1.33899	–
343.15 K, w1 = 0.15	–	1.34583	–
343.15 K, w1 = 0.2	–	1.35253	–
343.15 K, w1 = 0.25	–	1.35922	–
